Measured values reported in patent US20230391727A1, “ANALOGUES OF PENTAMIDINE AND METHODS FOR TREATING INFECTIONS” (Auransa Inc., priority 2020, published 2023).
Converted amounts (≈) assume the structure as drawn. Where two headings read alike, the source gives them in different places.

How the values were obtained:
Format in all cases: cell-based
[1] = system: Candida albicans CA6; assay: Anti-fungal MIC assay
Description: (§1) The first round of testing included Candida parapsilosis, Candida krusei, Paecilomyces variotii, Candida albicans, Aspergillus fumigatus, and Blastomyces dermatitidis. […] The second round of testing included Candida parapsilosis, Candida krusei, Candida albicans, Candida auris, Candida glabrata, Candida guilliermondii, and Cryptococcus neoformans.
(§2) Stock solutions of the investigational agent were prepared at concentrations 100-times the highest concentration to be tested (6400 μg/ml) using dimethyl sulfoxide. Aliquots of the stock solutions were dispensed into polystyrene vials and stored at −20° C.
(§3) The synthetic medium RPMI-1640 (with glutamine, without bicarbonate, and with phenol red) was used. The RPMI was buffered to a pH of 7.0+0.1 at 25° C. with 0.165M MOPS (3-[N-morpholino] propanesulfonic acid). Sterile U-shaped 96-well cell culture plates were used to perform the MIC assays. Dilutions of the DMSO stocks were prepared in RPMI to achieve 2× concentrations. After the dilutions of the working 2× investigational antifungal solutions were prepared, 0.1 ml of each concentration was transferred into a pre-specified column of the U-shaped 96-well cell culture plate using sterile pipettes.
(§4) Fungal isolates were grown on Sabouraud dextrose agar (yeasts) or potato flake agar (filamentous fungi) and cells were collected after an appropriate period of growth for each species being evaluated (e.g., 48-72 hours for yeasts and 7 days for filamentous fungi). The fungi were suspended in sterile distilled water, and the densities of the fungal suspension were read using a spectrophotometer and adjusted to an appropriate optical density specific for each fungal species. The fungal suspension of each isolate was then diluted in RPMI. A sufficient volume of the test inoculum was prepared to directly inoculate 0.1 ml into each test well of the 96-well cell culture plate. Final inoculum ranges were dependent on the fungal species to be tested (e.g., 0.4×103 to 5×10^3 cells/ml for yeasts and dimorphic fungi, and 0.4×104 to 5×10^4 cells/ml for filamentous fungi). Each well of the 96-well cell culture plate containing the investigational antifungal compounds (0.1 ml volume) was inoculated on the day of the assay with 0.1 ml of the fungal suspension. Growth control wells contained 0.1 ml of fungal suspension and 0.1 ml of the growth medium without antifungal agents. The media control well contained 0.2 ml of the growth medium.
(§5) The microdilution trays were incubated at 35° C. without agitation. […] One positive comparator/control was used for yeast (fluconazole) and one was used for filamentous fungi (voriconazole).

[2] = system: Cryptococcus neoformans H99; assay: Anti-fungal MIC assay
Description: as §1, §2, §3, §4, §5

[3] = system: Candida glabrata 05-761; assay: Anti-fungal MIC assay
Description: as §1, §2, §3, §4, §5

[4] = system: Candida auris DI17-47; assay: Anti-fungal MIC assay; details: Candidozyma auris
Description: as §1, §2, §3, §4, §5

[5] = system: Paecilomyces variotii MYA-3630; assay: Anti-fungal MIC assay
Description: as §1, §2, §3, §4, §5

[6] = system: Candida parapsilosis ATCC22019; assay: Anti-fungal MIC assay; details: Lodderomyces parapsilosis
Description: as §1, §2, §3, §4, §5

[7] = system: Candida parapsilosis CP2; assay: Anti-fungal MIC assay; details: Lodderomyces parapsilosis
Description: as §1, §2, §3, §4, §5

[8] = system: Candida parapsilosis CP1; assay: Anti-fungal MIC assay
Description: as §1, §2, §3, §4, §5

[9] = system: Candida albicans ATCC90028; assay: Anti-fungal MIC assay
Description: as §1, §2, §3, §4, §5

[10] = system: Candida guilliermondii Cgui3; assay: Anti-fungal MIC assay; details: Meyerozyma guilliermondii
Description: as §1, §2, §3, §4, §5

[11] = system: Candida krusei ATCC6258; assay: Anti-fungal MIC assay; details: Pichia kudriavzevii, second round (Table 6)
Description: as §1, §2, §3, §4, §5

[12] = system: Candida auris DI17-46; assay: Anti-fungal MIC assay; details: Candidozyma auris
Description: as §1, §2, §3, §4, §5

[13] = system: Candida guilliermondii Cgui2; assay: Anti-fungal MIC assay; details: Meyerozyma guilliermondii
Description: as §1, §2, §3, §4, §5

[14] = system: Cryptococcus neoformans CN3; assay: Anti-fungal MIC assay
Description: as §1, §2, §3, §4, §5

[15] = system: Candida albicans CA5; assay: Anti-fungal MIC assay
Description: as §1, §2, §3, §4, §5

[16] = system: Cryptococcus neoformans USC 1597; assay: Anti-fungal MIC assay
Description: as §1, §2, §3, §4, §5

[17] = system: Candida albicans 43001; assay: Anti-fungal MIC assay
Description: as §1, §2, §3, §4, §5

[18] = system: Candida auris DI17-48; assay: Anti-fungal MIC assay; details: Candidozyma auris
Description: as §1, §2, §3, §4, §5

[19] = system: Candida albicans CA3; assay: Anti-fungal MIC assay
Description: as §1, §2, §3, §4, §5

[20] = system: Candida guilliermondii Cgui1; assay: Anti-fungal MIC assay; details: Meyerozyma guilliermondii
Description: as §1, §2, §3, §4, §5

[21] = system: Candida glabrata 05-62; assay: Anti-fungal MIC assay
Description: as §1, §2, §3, §4, §5

[22] = system: Candida parapsilosis CP3; assay: Anti-fungal MIC assay; details: Lodderomyces parapsilosis
Description: as §1, §2, §3, §4, §5

[23] = system: Candida glabrata CG3; assay: Anti-fungal MIC assay; details: Nakaseomyces glabratus
Description: as §1, §2, §3, §4, §5

[24] = system: Candida albicans SC5314; assay: Anti-fungal MIC assay
Description: as §1, §2, §3, §4, §5

[25] = system: Staphylococcus aureus BAA-1556 (MRSA); assay: MIC assay against gram positive and antibiotic-resistant S. aureus; details: Staphylococcus aureus
Description: (§6) The MICs of vancomycin and linezolid were determined as quality controls and the MIC values of each strain met the acceptance criteria based on PDS historical reference data.
(§7) The direct colony suspension method was used to prepare inoculated broth. Isolated colonies were taken from an 18-24 h culture plate. Optical density measurements (OD620 nm) were used to estimate the bacterial density. The test article, compound 3, and reference control stock solutions were prepared in 100% DMSO as 50× stock solutions. The 50× stock solutions were diluted by 2-fold serial titrations with 100% DMSO for a total of 11 concentrations. A 4 μL aliquot of each dilution was added to 196 μL of cation-adjusted Mueller Hinton Broth II medium seeded with the organism in wells of a 96 well plate. The final vehicle concentration was two percent (2%) in all assay wells. The final bacterial count was 2 to 8×10^5 CFU/mL. The final compound 3 concentration range was 16 to 0.016 μg/mL. Each test substance dilution was evaluated in duplicate on one test occasion. Vehicle-control and reference controls were used as blank and positive controls, respectively. Plates were incubated at 35-37° C. for 18 h. The test plates were visually examined and each well was visually scored for growth or complete inhibition of growth. The MIC value was recorded.

[26] = system: Staphylococcus aureus VRS-2 (VRSA); assay: as above; details: Staphylococcus aureus, VRSA
Description: as §6, §7

[27] = system: Staphylococcus aureus ATCC 33591 (MRSA); assay: as above; details: Staphylococcus aureus
Description: as §6, §7

[28] = system: Staphylococcus aureus ATCC 19636; assay: as above; details: Staphylococcus aureus, ATCC19636
Description: as §6, §7

[29] = read-out: MIC, 50% growth inhibition
[30] = read-out: MIC, 100% growth inhibition

Question: Which results are given for `OC(Cn1cncn1)(Cn1cncn1)c1ccc(F)cc1F` [Fluconazole, reference compound]?
Answer: MIC [1, 29]: 0.25 µg/mL (≈ 0.816 µM); MIC [1, 30]: > 64 µg/mL; MIC [2, 29]: 16 µg/mL (≈ 52.2 µM); MIC [2, 30]: 32 µg/mL (≈ 104 µM); MIC ([3]; Nakaseomyces glabratus, 05761, read-out: MIC, 50% growth inhibition): 8 µg/mL (≈ 26.1 µM); MIC ([3]; Nakaseomyces glabratus, 05761, read-out: MIC, 100% growth inhibition): 32 µg/mL (≈ 104 µM); MIC ([4]; DI1747, read-out: MIC, 50% growth inhibition): > 64 µg/mL; MIC ([4]; DI1747, read-out: MIC, 100% growth inhibition): > 64 µg/mL; MIC ([5]; MYA3630, read-out: MIC, 50% growth inhibition): 16 µg/mL (≈ 52.2 µM); MIC ([5]; MYA3630, read-out: MIC, 100% growth inhibition): 32 µg/mL (≈ 104 µM); MIC ([6]; ATCC22019, C. parapsilosis ATCC 22019, second round (Table 6), read-out: MIC, 50% growth inhibition): 2 µg/mL (≈ 6.53 µM); MIC ([6]; ATCC22019, Candida parapsilosis ATCC22019, first round (Table 5), read-out: MIC, 50% growth inhibition): 1 µg/mL (≈ 3.27 µM); MIC ([6]; ATCC22019, read-out: MIC, 100% growth inhibition, C. parapsilosis ATCC 22019, second round (Table 6)): 2 µg/mL (≈ 6.53 µM); MIC ([6]; ATCC22019, read-out: MIC, 100% growth inhibition, Candida parapsilosis ATCC22019, first round (Table 5)): 2 µg/mL (≈ 6.53 µM); MIC [7, 29]: 0.5 µg/mL (≈ 1.63 µM); MIC [7, 30]: 0.5 µg/mL (≈ 1.63 µM); MIC [8, 29]: 0.5 µg/mL (≈ 1.63 µM); MIC [8, 30]: 1 µg/mL (≈ 3.27 µM); MIC [9, 29]: ≤ 0.125 µg/mL; MIC [9, 30]: > 64 µg/mL; MIC [10, 29]: 2 µg/mL (≈ 6.53 µM); MIC [10, 30]: 4 µg/mL (≈ 13.1 µM); MIC ([11]; ATCC6258, C. krusei ATCC 6258, read-out: MIC, 50% growth inhibition): 16 µg/mL (≈ 52.2 µM); MIC ([11]; ATCC6258, read-out: MIC, 100% growth inhibition, C. krusei ATCC 6258): 32 µg/mL (≈ 104 µM); MIC ([12]; DI1746, read-out: MIC, 50% growth inhibition): > 64 µg/mL; MIC ([12]; DI1746, read-out: MIC, 100% growth inhibition): > 64 µg/mL; MIC [13, 29]: 2 µg/mL (≈ 6.53 µM); MIC [13, 30]: 4 µg/mL (≈ 13.1 µM); MIC [14, 29]: > 64 µg/mL; MIC [14, 30]: > 64 µg/mL; MIC [15, 29]: 0.25 µg/mL (≈ 0.816 µM); MIC [15, 30]: > 64 µg/mL; MIC ([16]; USC1597, read-out: MIC, 50% growth inhibition): 4 µg/mL (≈ 13.1 µM); MIC ([16]; USC1597, read-out: MIC, 100% growth inhibition): 8 µg/mL (≈ 26.1 µM); MIC [17, 29]: > 64 µg/mL; MIC [17, 30]: > 64 µg/mL; MIC ([18]; DI1748, read-out: MIC, 50% growth inhibition): 2 µg/mL (≈ 6.53 µM); MIC ([18]; DI1748, read-out: MIC, 100% growth inhibition): 16 µg/mL (≈ 52.2 µM); MIC [19, 29]: > 64 µg/mL; MIC [19, 30]: > 64 µg/mL; MIC [20, 29]: 1 µg/mL (≈ 3.27 µM); MIC [20, 30]: 4 µg/mL (≈ 13.1 µM); MIC ([21]; Nakaseomyces glabratus, 0562, read-out: MIC, 50% growth inhibition): > 64 µg/mL; MIC ([21]; Nakaseomyces glabratus, 0562, read-out: MIC, 100% growth inhibition): > 64 µg/mL; MIC [22, 29]: 1 µg/mL (≈ 3.27 µM); MIC [22, 30]: 1 µg/mL (≈ 3.27 µM); MIC [23, 29]: 0.5 µg/mL (≈ 1.63 µM); MIC [23, 30]: 64 µg/mL (≈ 209 µM); MIC [24, 29]: 0.25 µg/mL (≈ 0.816 µM); MIC [24, 30]: > 64 µg/mL

Question: Which results are given for `CN[C@H](CC(C)C)C(=O)N[C@H]1C(=O)N[C@@H](CC(N)=O)C(=O)N[C@H]2C(=O)N[C@H]3C(=O)N[C@H](C(=O)N[C@H](C(=O)O)c4cc(O)cc(O)c4-c4cc3ccc4O)[C@H](O)c3ccc(c(Cl)c3)Oc3cc2cc(c3O[C@@H]2O[C@H](CO)[C@@H](O)[C@H](O)[C@H]2O[C@H]2C[C@](C)(N)[C@H](O)[C@H](C)O2)Oc2ccc(cc2Cl)[C@H]1O` [Vancomycin]?
Answer: MIC [25]: 0.5 µg/mL (≈ 0.345 µM); MIC [26]: > 64 µg/mL; MIC [27]: 0.5 µg/mL (≈ 0.345 µM); MIC [28]: 0.5 µg/mL (≈ 0.345 µM)
